Test results from PubChem BioAssay (NCI).
Several values for one entry are separate records, joined by “and”; a condition that tells them apart may be missing. Equal entries are not always repeated.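 Five concentrations, 48 hours, 96-well plates. GI50 = concentration required for 50% inhibition of growth. Definition used: TGI = concentration required for complete inhibition of growth.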

How the values were obtained:
Test in all cases: DTP human tumour cell line panel, 48 h
SK-MEL-28 melanoma = tested on: SK-MEL-28 melanoma
T-47D breast = tested on: T-47D breast
COLO 205 colon = tested on: COLO 205 colon
RXF 393 renal = tested on: RXF 393 renal
SK-MEL-2 melanoma = tested on: SK-MEL-2 melanoma
SW-620 colon = tested on: SW-620 colon
HCC-2998 colon = tested on: HCC-2998 colon
NCI-H460 lung = tested on: NCI-H460 lung
SN12C renal = tested on: SN12C renal
UACC-62 melanoma = tested on: UACC-62 melanoma

Row | SMILES | GI50 (SK-MEL-28 melanoma) | TGI (SK-MEL-28 melanoma) | GI50 (T-47D breast) | TGI (T-47D breast) | GI50 (COLO 205 colon) | TGI (COLO 205 colon) | GI50 (RXF 393 renal) | TGI (RXF 393 renal) | GI50 (SK-MEL-2 melanoma) | TGI (SK-MEL-2 melanoma) | GI50 (SW-620 colon) | TGI (SW-620 colon) | GI50 (HCC-2998 colon) [µM] | TGI (HCC-2998 colon) | GI50 (NCI-H460 lung) | TGI (NCI-H460 lung) | GI50 (SN12C renal) | TGI (SN12C renal) | GI50 (UACC-62 melanoma) | TGI (UACC-62 melanoma)
1 | CN(C)c1ccc(N=C2C=CC(=[N+](C)C)C=C2)cc1 | 14.2 µM | > 100 µM | 4.37 µM | 21.2 µM | 4.2 µM | 16.2 µM | 23.4 µM | > 100 µM | 3.05 µM | 13 µM | 6.6 µM | 26.2 µM | 9.03 | 65.8 µM | 5.36 µM | 43.7 µM | 13.7 µM | > 100 µM | 5.25 µM | 34.6 µM
2 | COc1cc(OC)c(/C=C\c2ccnc3ccccc23)c(OC)c1 |  | 17.9 µM |  | 15.6 µM |  | 8.2 µM |  | 11.6 µM |  | 19.4 µM |  | 20.8 µM |  | 23.9 µM |  | 14.2 µM |  | 16.3 µM |  | 14.6 µM
3 | c1cc2[nH]ncc2cc1-c1nc2ccc3[nH]ncc3c2c2c1CCCC2 | 1.28 µM | 5.88 µM | 2.02 µM | 12.3 µM | 1.36 µM | 8.36 µM | 0.822 µM | 2.86 µM | 0.509 µM | 2.15 µM | 0.441 µM | 11.2 µM | 1.98 | 9.79 µM | 1.2 µM | 10.5 µM | 2.53 µM | 13.4 µM | 0.425 µM | 3.53 µM
4 | Nc1nc(OCc2cc(Br)cs2)c2[nH]cnc2n1 | 29.3 µM | > 100 µM | 17.5 µM | 87.5 µM | 34 µM | > 100 µM | 14 µM | 55.5 µM | 28.8 µM | 81.3 µM | 40.2 µM | > 100 µM | 36.2 | > 100 µM | 25 µM | > 100 µM | 29.6 µM | > 100 µM | 16.3 µM | 59.7 µM
5 | CC1=CC(=C(c2ccc(N)cc2)c2ccc(N)cc2)C=CC1=N | 0.789 µM and 4.57 µM | 7.89 µM and 36.8 µM and 19.6 µM | 0.27 µM and 1.31 µM | 2.73 µM and 11.8 µM and 8.81 µM | 0.373 µM and 1.77 µM | 1.6 µM and 4.86 µM and 3.38 µM | 3.17 µM and 5.67 µM | 12.2 µM and 34.5 µM and 22.9 µM | 2.32 µM and 2.71 µM | 7.73 µM and 12.2 µM and 5.84 µM | 0.668 µM and 3.25 µM | 11.8 µM and 38.8 µM and 16 µM |  | 2.21 µM and 16 µM and 18.9 µM | 0.838 µM | 7.3 µM and 28.9 µM and 15.8 µM | 0.422 µM and 0.456 µM | 13.5 µM and 10 µM and 69.3 µM | 1.3 µM and 3.09 µM | 5.53 µM and 18.3 µM and 16.1 µM
6 | Cc1ccccc1-n1ncc(C(=O)c2ccccc2)c1N | > 25 µM | > 25 µM | > 25 µM | > 25 µM | > 25 µM | > 25 µM | > 25 µM | > 25 µM | > 25 µM | > 25 µM | > 25 µM | > 25 µM | > 25 | > 25 µM | > 25 µM | > 25 µM | > 25 µM | > 25 µM | > 25 µM | > 25 µM
7 | CC1(C)CCC2=C(O1)c1ccccc1C(=O)C2=O | 1.88 µM and 0.406 µM | 3.39 µM and 1.44 µM | 1.49 µM | 4.4 µM and 1.87 µM |  | 3.63 µM | 1.66 µM | 3.04 µM and 2.94 µM | 2.05 µM | 4.13 µM and 3.07 µM | 1.86 µM | 3.93 µM and 1.09 µM | 1.76 | 3.25 µM | 1.88 µM and 0.323 µM | 3.69 µM and 1.15 µM | 0.855 µM | 2.2 µM and 1.04 µM | 1.79 µM | 3.3 µM and 0.957 µM
8 | Cn1cc(C2=C(c3cn(C)c4c([N+](=O)[O-])cccc34)C(=O)NC2=O)c2ccccc21 | > 25 µM | > 25 µM | > 25 µM | > 25 µM | > 25 µM | > 25 µM | > 25 µM | > 25 µM | > 25 µM | > 25 µM | > 25 µM | > 25 µM | > 25 | > 25 µM | > 25 µM | > 25 µM | > 25 µM | > 25 µM | > 25 µM | > 25 µM
9 | O=C1C(=O)c2c(nc3ccc(Br)cn23)-c2ccccc21 | 0.606 µM | 1.56 µM | 1.44 µM | 3.89 µM | 1.78 µM | 3.55 µM | 1.55 µM | 2.97 µM | 0.596 µM | 1.99 µM | 0.622 µM | 1.76 µM | 1.93 | 3.51 µM | 1.09 µM | 2.69 µM | 0.329 µM | 0.806 µM | 0.365 µM | 1.27 µM
10 | COC(=O)[C@]12CC[C@@H](C)[C@H](C)[C@@H]1C1=CC[C@@H]3[C@@]4(C)C(C=O)=C[C@@](C)(COC(C)=O)C4=CC[C@@]3(C)[C@]1(C)CC2 | 3.22 µM | 12.3 µM | 3.79 µM | 27.3 µM | 2.34 µM | 5.8 µM | 3.55 µM | 14.1 µM | 4.71 µM | 16.1 µM | 4.15 µM | 16.2 µM | 3.32 | 12.4 µM | 3.98 µM | 15.2 µM | 6.12 µM | 28.1 µM | 4.11 µM | 18.1 µM
11 | COc1ccc2c(CN3CCC(C(=O)O)CC3)cc3cc4c(cc3c2c1)OCO4 | 2.28 µM | 6.02 µM | 3.62 µM | 17.7 µM | 1.55 µM | 4.33 µM | 1.14 µM | 3.6 µM | 1.48 µM | 3 µM | 2.51 µM | 39.4 µM | 2.72 | 11 µM | 2.97 µM | 16.1 µM | 1.27 µM | 4.08 µM | 1.59 µM | 3.03 µM
12 | Clc1cccc(Cl)c1C1CSc2ccccc2N=C1c1ccccc1 (stereo not drawn) | 4.82 µM | 17.3 µM | 8.39 µM | 34.5 µM | 12.3 µM | 33.5 µM | 9.74 µM | 24.1 µM | 11.2 µM | 24.3 µM | 2.34 µM | 5.64 µM | 4.74 | 15.5 µM | 4.04 µM | 15.6 µM | 3.35 µM | 12.3 µM | 5.9 µM | 19.6 µM
13 | COc1ccc(C(SCC(N)C(=O)O)(c2ccccc2)c2ccccc2)cc1 (stereo not drawn) | 3.12 µM | > 100 µM | 0.409 µM | > 100 µM | 0.3 µM | 15.8 µM | 0.19 µM | > 100 µM | 5.03 µM | > 79.5 µM | 0.0745 µM | > 100 µM | 0.246 | 12.2 µM | 0.23 µM | > 41.9 µM | 0.199 µM | > 68.4 µM | 0.171 µM | > 56.7 µM
